The target in the experiment is CB1 (rCB1) (Rattus norvegicus, UniProt P20272). Briefly: Single-point radioligand displacement screen. The class given is binding. Particulars: for % 1H-CP-55,940 displacement (mean) from single point screen: 10 µM, 1 µM or 300 nM by cell colour (not visible); for rep1_displacement / rep2_displacement / rep3_displacement: Figure 1c source data; for rep1_displacement: replicate 1; for rep2_displacement: replicate 2; for rep3_displacement: replicate 3; for % radioligand displacement [S.D]: single point at 10 µM, three replicates. (In general: Loss of bound radioactivity is the signal in a displacement assay; it reports binding, not function.)
Sequence of CB1 (rCB1) (P20272 whole entry): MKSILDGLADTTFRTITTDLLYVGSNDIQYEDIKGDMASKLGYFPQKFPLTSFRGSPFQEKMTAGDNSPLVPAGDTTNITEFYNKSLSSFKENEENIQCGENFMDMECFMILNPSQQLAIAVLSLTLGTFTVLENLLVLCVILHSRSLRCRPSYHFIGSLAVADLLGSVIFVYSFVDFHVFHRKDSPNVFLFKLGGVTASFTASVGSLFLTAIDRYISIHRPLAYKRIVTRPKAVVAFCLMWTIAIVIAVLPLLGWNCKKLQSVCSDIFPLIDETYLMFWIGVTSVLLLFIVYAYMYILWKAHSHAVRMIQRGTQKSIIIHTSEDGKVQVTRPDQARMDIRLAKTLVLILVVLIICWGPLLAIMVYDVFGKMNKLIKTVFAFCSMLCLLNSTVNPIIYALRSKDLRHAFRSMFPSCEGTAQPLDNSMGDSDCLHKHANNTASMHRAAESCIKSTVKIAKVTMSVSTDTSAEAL

For `CC(O)C1CCCN(C(=O)c2cc(Oc3cccc(Br)c3)ccn2)C1` (centres unmarked) [compound 74717], the “% 1H-CP-55,940 displacement (mean) from single point screen” value (“% 1H-CP-55,940 displacement (mean)” for short) was found to be 17.22%, the rep1_displacement was found to be 25.4, the rep2_displacement is recorded as 11.4 and the rep3_displacement was 14.8.
In the same order, the values of `CC1OCCC12CN(C(=O)c1oc3ccccc3c1COc1ccccc1)CCO2` (centres unmarked) [compound 70889] are 46.62%, 47.8, 46.3 and 45.8.
As to `COC(=O)[C@@H](NC(=O)c1cc(C)n(-c2cccc(F)c2)n1)c1ccc(OC)cc1` [compound 59513], the “% 1H-CP-55,940 displacement (mean)” value was 10.54%.
Consider `CCCC1CN(C(=O)c2cc(Oc3cccc(Br)c3)ccn2)CCO1` (centres unmarked) [compound 83628], for which the “% 1H-CP-55,940 displacement (mean)” value is on record as 12.80%, the rep1_displacement came out at 14, the rep2_displacement turned out to be 14.4 and the rep3_displacement is reported as 10.1.
On to `Cn1ncc2c(N3CCC(COCc4ccccc4)C3)nc(Cl)nc21` (centres unmarked) [compound 66978], for which the “% 1H-CP-55,940 displacement (mean)” value is on record as -5.01%, the rep1_displacement is 10, the rep2_displacement was -21.7 and the rep3_displacement is on record as -3.3.
As for `COc1cc(OC)cc(-c2nc([C@H](OC)c3ccc(Br)cc3)no2)c1` [compound 13596], the “% 1H-CP-55,940 displacement (mean)” value was 47.56%, the rep1_displacement came to 46.1 and the rep2_displacement is reported as 49.
Take `COC(=O)C(NC(=O)c1cc(-c2cccc(F)c2)c2ccccc2c1)c1cccs1` (centres unmarked) [1486_17]: the “% 1H-CP-55,940 displacement (mean)” value stood at 8.92%.
On the same count and under the same terms, the same measure for `COC(=O)C(NC(=O)c1csc(Cc2ccccc2)n1)c1cccs1` (centres unmarked) [compound 61815]: 32.97%; for `CCOC(=O)C1(NC(=O)c2cc(C)n(-c3cccc(Cl)c3)n2)CCCCC1` [compound 64801]: 31.60%.
Consider `COC(=O)C(OC(=O)c1cc(C)n(-c2cccc(Cl)c2)n1)c1ccsc1` (centres unmarked) [compound 75729], for which the “% 1H-CP-55,940 displacement (mean)” value was 29.65%, the rep1_displacement is given as 32.1, the rep2_displacement is given as 28 and the rep3_displacement stood at 28.8.
With `Cn1nc(CNC(=O)C(C)(C)Oc2ccc(Cl)cc2)c2ccccc2c1=O` [0450_26], the “% 1H-CP-55,940 displacement (mean)” value was found to be 7.64%.
Same read-out and setting: to `CCOC(=O)c1nc(-c2nc(Cc3cc4c(cc3Br)OCO4)no2)cs1` [7019_300] belongs 3.83%; to `Cc1cc(C(=O)N2CC3(CCC3)C2C2CCOCC2)nn1-c1cccc(C(F)(F)F)c1` (centres unmarked) [10_19], 82.61%.
On the same count and under the same terms, the same measure for `O=C(OCC1CSc2ccccc2O1)c1cc(Oc2ccccc2)ccn1` (centres unmarked) [compound 50267]: 15.53%.
Same read-out and setting: to `Cc1c(C(=O)OCC2CN(c3ccccc3)C(=O)O2)cnn1Cc1ccccc1` (centres unmarked) [compound 5081] belongs 31.79%.
In the case of `O=C(OCc1ccc(Cl)cc1-n1cncn1)c1ccnc(OC2CCC2)c1` [compound 91451], the “% 1H-CP-55,940 displacement (mean)” value was found to be 17.98%, the rep1_displacement was 15.6 and the rep2_displacement is given as 20.4.
As to `CC(C)c1ncc(Cl)c(C(=O)N2CC(Cc3ccccc3Cl)C2)n1` [compound 56513], the “% 1H-CP-55,940 displacement (mean)” value was 36.74%, the rep1_displacement came to 17.6, the rep2_displacement is listed as 25.1 and the rep3_displacement is reported as 67.5.
Taken in the same sequence, the figures for `COC(=O)c1nc(N(C)CCOc2ccc(Br)cc2)sc1C` [compound 22875] were 27.03%, 25.7, 29.1 and 26.3.
As to `CCOC(=O)C1CN(C(=O)c2cc(C)n(-c3cccc(C(F)(F)F)c3)n2)CC12CC2` (centres unmarked) [10_21], the “% 1H-CP-55,940 displacement (mean)” value worked out at 83.57%.
On the same count and under the same terms, the same measure for `COC(=O)[C@@H](NC(=O)c1cc(C)n(-c2cccc(Cl)c2)n1)c1ccc(OC)cc1` [compound 69543]: 10.83%.
Still for that read-out and setting: to `Cc1c(C(=O)NCC2CSc3ccccc3O2)nnn1Cc1ccc(F)cc1` (centres unmarked) [compound 22139] belongs 13.03%.
For the compound `Cc1onc(-c2ccccc2)c1C(=O)OCc1cn2cc(Cl)ccc2n1` [compound 74872], the “% 1H-CP-55,940 displacement (mean)” value was determined as 49.60%, the rep1_displacement is given as 51.6, the rep2_displacement is recorded as 49.2 and the rep3_displacement is 48.
Turning to `CC1(C)CN(C(=O)c2cn(-c3cccc(C(F)(F)F)c3)nn2)C1c1cccs1` (centres unmarked) [10_20], the “% 1H-CP-55,940 displacement (mean)” value stood at 52.38%.
On the same count and under the same terms, to `O=C(Nc1cccc2ccsc12)c1ccn(-c2cccc(F)c2)n1` [1486_22] belongs -3.59%.
Still for that read-out and setting: the same measure for `N#Cc1cccc(OCc2ccoc2C(=O)OCC2CSc3ccccc3O2)c1` (centres unmarked) [compound 35424]: 60.22%.
For the compound `O=c1ccc(-c2nc(C(F)(F)c3ccc(F)cc3)no2)nn1-c1ccc(F)cc1` [‘2443], the “% 1H-CP-55,940 displacement (mean)” value was found to be 51.06%, the rep1_displacement is 53.4, the rep2_displacement was found to be 54.3 and the rep3_displacement turned out to be 45.5. Also, the “% radioligand displacement [S.D]” value worked out at 51.1% [4.87].
In the case of `O=C(NCC1CSc2ccccc2O1)c1ncc(Cc2ccccc2)o1` (centres unmarked) [compound 5752], the “% 1H-CP-55,940 displacement (mean)” value was 24.02%.
`CN(C)c1cc(-c2nc(Cc3ccc4c(c3)OCCO4)no2)c2ccccc2n1` [compound 85562]: the “% 1H-CP-55,940 displacement (mean)” value came out at 44.88%, the rep1_displacement was 45.9, the rep2_displacement is on record as 44.2 and the rep3_displacement worked out at 44.5.
Turning to `O=C(NCC1CSc2ccccc2O1)c1cn(Cc2ccccc2)nn1` (centres unmarked) [compound 78184], the “% 1H-CP-55,940 displacement (mean)” value came to 28.43%.
In the case of `C=CCn1c(SC(C)COC)nc2cc(-c3ccccc3)sc2c1=O` (centres unmarked) [compound 50746], the “% 1H-CP-55,940 displacement (mean)” value is listed as 26.93%, the rep1_displacement turned out to be 27.8, the rep2_displacement was 26.8 and the rep3_displacement turned out to be 26.1.
With `Cc1c(C(=O)OCC2CSc3ccccc3O2)nnn1Cc1ccc(F)cc1` (centres unmarked) [compound 61926], the “% 1H-CP-55,940 displacement (mean)” value was determined as 64.39%.
Same read-out and setting: the same measure for `O=C(OCC1CSc2ccccc2O1)c1ccc(Cn2cccc2)cc1` (centres unmarked) [compound 30177]: 18.40%.
Still for that read-out and setting: to `Cc1nc(CC2CC2)oc1-c1nc(-c2ccc3c(c2)OCO3)no1` [compound 5962] belongs 10.45%.
For `Fc1ccc(C(F)(F)c2noc(-c3cnnn3-c3cccc(F)c3)n2)cc1` [compound 9217], the “% 1H-CP-55,940 displacement (mean)” value worked out at 46.71%, the rep1_displacement is 49.7, the rep2_displacement is recorded as 46.4 and the rep3_displacement is on record as 44.1.
On to `Cc1cc(C(=O)N2CC3(CCC3)[C@@H]3COC[C@@H]32)nn1-c1cccc(C(F)(F)F)c1` [10_14], for which the “% 1H-CP-55,940 displacement (mean)” value is 91.30%.
Still for that read-out and setting: the same measure for `Cc1cc(C(=O)NC(c2ccc(Cl)cc2)c2ccn(C)n2)nn1-c1cccc(F)c1` (centres unmarked) [compound 17429]: 23.12%.
Regarding `Fc1ccc(-n2ncc3c(SCc4cc(-c5ccco5)on4)ncnc32)cc1` [compound 23397], the “% 1H-CP-55,940 displacement (mean)” value is 17.08%, the rep1_displacement is given as 23, the rep2_displacement is on record as 15.9 and the rep3_displacement was 12.4.
Regarding `O=C(OCC1CSc2ccccc2O1)c1ccc(Oc2cccnc2)cc1` (centres unmarked) [compound 82778], the “% 1H-CP-55,940 displacement (mean)” value amounted to 26.16%.
The same measure, in the same setting: the same measure for `O=C(OCC1CSc2ccccc2O1)c1cn(Cc2cccc(F)c2)nn1` (centres unmarked) [compound 23346]: 25.27%.
As to `O=C1C(=O)N(C23CC4CC(CC(C4)C2)C3)C(=O)N1CC1CCC(C(F)(F)F)CC1` (centres unmarked) [compound 8441], the “% 1H-CP-55,940 displacement (mean)” value is listed as 47.91%, the rep1_displacement is recorded as 51.8, the rep2_displacement is given as 42.6 and the rep3_displacement amounted to 49.3.
For the compound `Cc1ccccc1-n1c(=O)c2ccccc2n2c(SC[C@H]3CCCO3)nnc12` [compound 97662], the “% 1H-CP-55,940 displacement (mean)” value worked out at 18.48%, the rep1_displacement turned out to be 20.6, the rep2_displacement turned out to be 19.4 and the rep3_displacement turned out to be 15.5.
Regarding `O=C(OCC1CSc2ccccc2O1)c1csc(Cc2ccccc2)n1` (centres unmarked) [compound 86798], the “% 1H-CP-55,940 displacement (mean)” value was determined as 2.04%.
On the same count and under the same terms, to `O=C(OCC1CSc2ccccc2O1)c1cnn(Cc2ccccc2)c1Br` (centres unmarked) [7800_27] belongs 70.31%; to `Cc1c(C(=O)OCC2CSc3ccccc3O2)cnn1Cc1cccc(C(F)(F)F)c1` (centres unmarked) [7800_25], 58.49%.
On the same count and under the same terms, the same measure for `Cn1nc(-c2nnc(C(C)(C)Oc3ccc(F)cc3)o2)c2ccccc2c1=O` [compound 31486]: 32.26%.
Consider `COc1ccc(Cl)c(-c2cc(C(=O)N3CCOC[C@@H]3CC(C)C)on2)c1` [compound 97878], for which the “% 1H-CP-55,940 displacement (mean)” value is given as 33.55%, the rep1_displacement stood at 62.5, the rep2_displacement is given as 14.5 and the rep3_displacement was determined as 23.7.
Take `COc1cccc(C2(C)CCN(C(=O)CC34CCCCC3C4(F)F)C2)c1` (centres unmarked) [‘7218]: the “% 1H-CP-55,940 displacement (mean)” value is on record as 52.18%, the rep1_displacement is listed as 43.4, the rep2_displacement worked out at 33 and the rep3_displacement was 80.2. The “% radioligand displacement [S.D]” value was determined as 52.2% [24.79].

Values taken from publication PMC11882969 (Nature Communications, 2025).
